Test results reported in US6066333A, “Pharmaceutical control of inflammation” (William Harvey Research Limited, priority 1994, dated 2000).
“Also recorded” adds a separate entry of the source.

Tests used:
[1] = tested on: heme-oxygenase (brain homogenates); assay: heme-oxygenase activity in rat brain homogenates; format: biochemical; conditions: for effect on brain HO activity: 0.1-10 mM (sodium nitroprusside 0.001-10 mM)
Method: (§1) The brains and spleens of male Wistar rats (160±20 g, Tuck Co. UK) were homogenized using a glass homogenizer, in protease inhibitory buffer; phenylmethylsulfonyl fluoride 1 mM, pepstatin A 1.5 mM and leupeptin 0.2 mM, in 10 mM phosphate buffered saline pH 7.3. Protein determinations were carried by the Bradford method, bovine serum albumin was used as protein standard.
(§2) Heme-oxygenase activity was assayed as previously described (Sierra, E. E. et al., (1992) Analytical Biochem. 200, 27-30).
(§3) Briefly, the 15 μl reaction mixture consisted of 11.2 μM [^14 C] heme (specific activity 54 Ci/mol), 1 mM NADPH, 2 mM glucose-6-phosphate, 0.1 units of glucose-6-phosphate dehydrogenase, 3 mg/ml liver cytosolic protein, 100-50 μg of sample protein and the relevant concentration of test drugs; L-arginine, D-arginine, NG-nitro-L-arginine methyl ester (L-NAME) or sodium nitroprusside. The reaction mixture containing the test drugs was allowed to equilibrate at 37° C. for 15 mins before the reaction was started by the addition of the heme. The reaction was terminated after 30 mins by the addition of excess cold heme and bilirubin and placed on ice. The reaction mixture was spotted on to the silica gel thin-layer chromatography sheet by 2, 2 μl applications. All samples were run in duplicate. The chromatogram was developed using a 20:1 dilution of chloroform:acetic acid. Spots corresponding to heme and bilirubin were excised and placed in 10 ml of scintillation fluid to be counted. The data was calculated as pmols bilirubin formed/mg protein/hour.
(§4) Statistical analysis of the raw data was carried using Student's unpaired t test. Results expressed as mean ± s.e.mean with P<0.05 considered as significant.

[2] = tested on: heme-oxygenase (spleen homogenates); assay: heme-oxygenase activity in rat spleen homogenates; format: biochemical; conditions: 0.1-10 mM (sodium nitroprusside 0.001-10 mM)
Method: as §1, §2, §3, §4

[3] = tested on: carrageenin pleurisy; assay: rat carrageenin pleurisy model of acute inflammation (Example 1); format: in vivo; conditions: for Exudate Volume / Total Cells 10^6: mean ± s.e. mean; for effect on inflammation (exudate volumes and cell numbers) at 6 hours: compared to controls; for increase of exudate volume (cell exudate) compared to vehicle control: SnPP 2 x 40 μmoles/kg s.c.
Method: Male Wistar rates 200±20 grams (Tuck & Sons Ltd., Essex, UK) were used for inflammation. Animals were administered either with 15 mg/kg Ferriprotoporphrin IX chloride (FePP) by intravenous injection--18 hours before inflammation or with 2 doses of 40 μmoles/kg Tin protoporphyrin dichloride (SnPP) by sub-cutaneous injection--18 hours and at the time of inflammation induction (porphyrins were obtained from Porphyrin Products Inc., Logan, Utah). Drugs were prepared in 0.1N NaOH and mixed 1:1 with saline, these were then adjusted to pH 7.4, drug vehicle. The total volume injected was 0.2 ml. Control animals received vehicle only.
Carrageenin pleurisy was induced in rats and cell pellet prepared as previously described by Tomlinson et al.
Results are expressed as the mean ± s.e. mean. Statistical analysis was determined by Mann-Whitney U-test, with a P value of <0.05 considered significant.
The effect of heme-oxygenase inhibitor Tin protoporphyrin dichloride (SnPP) and inducer ferriprotoporphyrin IX chloride (FePP) on acute inflammation was examined. Treatment animals received either 2 doses of 40 μmoles/kg SnPP s.c.--18 and 0 hours before induction of inflammation, or 1 doses of 15 mg/kg FePP i.v--18 before inflammation. Treatment animals were compared to control animals which had received vehicle only by the appropriate route.***P<0.001.

[4] = tested on: carrageenin pleurisy; assay: rat carrageenin pleurisy, dose response of HO modulators (Example 2); format: in vivo; conditions: for effect on the inflammatory lesion compared to vehicle control at 6 hours: 6 hours after carrageenin, PMNs phase (data not shown); for effect on inflammation at 24 hours (dose dependence): 3, 10 or 30 μmoles/kg
Method: Animals received 2 doses of either 3, 10 or 30 μmoles/kg SnPP (a HO inhibitor) or vehicle control--18 hours and at the time of inflammation induction. Animals received 1 dose of either 3, 10 or 30 μmoles/kg FePP (a HO inducer) or vehicle control--18 hours before induction of inflammation, n=9.
Male Wistar rats 200+20 grams were anaesthetized with halothane and 150 ul of a 1% carrageenin solution in 0.9% NaCl injected into the pleural cavity. Exudates were collected 2, 6, 12, 24 and 48 hours after injection of the irritant by pleural lavage with 1 ml protease inhibitory buffer containing: trisodium citrate 3.15%, phenylmethylsulfonyl fluoride 1 mM (Sigma Chemical Co., Poole, UK), pepstatin A 1.5 mM (Sigma) and leupeptin 0.2 mM (Sigma) in 10 mM phosphate buffered (PBS) pH 7.3. Any exudates with blood contamination were rejected. Cells were counted using a Coulter counter, model DN (Coulter Electronics Ltd., Luton, UK). Each sample was centrifuged at 800 g for 10 minutes and the resultant cell pellet prepared as outlined below.
Results are expressed as the mean ± s.e.mean for (n) experiments. Statistical analysis was determined Student's unpaired t test, with a P value of <0.05 considered significant.
To investigate whether increased HO activity was not only associated with tissue protection but also involved in resolving acute inflammation we used an HO inhibitor, tin protoporphyrin (SnPP), administered sub-cutaneously 18 hours before and at the time of carrageenin injection, and an HO inducer, ferriprotoporphyrin IX chloride (FePP), given […] 18 hours before induction of the inflammation (Maines MD et al., FASEB J. 1988; 2:2557-2568).

[5] = tested on: heme-oxygenase; assay: HO activity of 24 hour inflammatory cells after porphyrin treatment; format: in vivo, rat; conditions: FIGS. 15 and 16
Method: Cells are lysed by sonication for 10 seconds in protease inhibitory buffer. Heme-oxygenase is assayed as previously described. […] The reaction is started by the addition of the heme, incubated at 37° C. for 30 minutes and stopped by the addition of excess cold heme and bilirubin followed by placing on ice. 2 μl of reaction mixture is spotted twice onto a silica gel thin-layer chromatography sheet. The chromatogram is developed using a 20:1 dilution of chloroform:acetic acid. Spots corresponding to hem and bilirubin are were cut out and placed in 10 ml of scintillation fluid to be counted. […] The activity is expressed as pmoles bilirubin/mg protein/hour, n=9. Results are expressed as the mean ± s.e.mean.

[6] = 6 hours after carrageenin, SnPP 2 x 40 μmoles/kg s.c. (-18 and 0 h) or FePP 15 mg/kg i.v. (-18 h)
[7] = 6 hours after carrageenin, SnPP 2 x 40 μmoles/kg s.c. or FePP 15 mg/kg i.v.
[8] = 24 hours after carrageenin, SnPP 2 x 40 μmoles/kg s.c. or FePP 15 mg/kg i.v.
[9] = 24 hours, FePP 15 mg/kg i.v., P<0.001
[10] = 24 hours, FePP 3 μmole/kg, 1 dose s.c. 18 hours before

Compound | effect on brain HO activity [1] | effect on spleen HO activity [2] | Exudate Volume [3, 6] | Total Cells 10^6 [3, 7] | effect on inflammation (exudate volumes and cell numbers) at 6 hours [3] | Exudate Volume [3, 8] | Total Cells 10^6 [3, 8] | effect on the inflammatory lesion compared to vehicle control at 6 hours [4] | effect on inflammation at 24 hours (dose dependence) ([4]; 24 hours) | HO activity of inflammatory pellets after treatment [5] | also measured
N=C(N)NCCC[C@@H](N)C(=O)O [D-arginine] | no significant effect | not modified; also recorded: no effect | – | – | – | – | – | – | – | – | –
C=CC1=C(C)c2cc3[n-]c(cc4[n-]c(cc5nc(cc1n2)C(C)=C5C=C)c(C)c4CCC(=O)O)c(CCC(=O)O)c3C.[Cl-].[Fe+3] [FePP, Ferriprotoporphrin IX chloride] | – | – | 0.99 ± 0.11 mL | 50 ± 8 10^6 | not significantly modified | 0.37 ± 0.07 mL | 45 ± 6 10^6 | Neither SnPP or FePP treatments had an effect | dose dependant suppression of inflammatory cell number and exudate volume | increase | effect on inflammation (exudate volumes and cell numbers) at 6 hours ([3]; listed as hemin): no significant effect; decrease of cell number (total cells) compared to vehicle control [3, 9]: 50%; decrease of exudate volume (cell exudate) compared to vehicle control [3, 9]: 73%; decrease of exudate volume (cell exudate) compared to vehicle control ([3]; 24 hours, FePP 15 mg/kg i.v., P<0.001, listed as hemin): 83%; degree of suppression compared with conventional anti-inflammatories or steroids in this model ([4]; 24 hours): greater than that seen with optimal doses of conventional anti-inflammatories or steroids; reduction of exudate volume compared to vehicle control [4, 10]: 55%; reduction of inflammatory cell number compared to vehicle control [4, 10]: 90%
COC(=O)[C@@H](N)CCCNC(=N)N[N+](=O)[O-] [L-NAME, NG-nitro-L-arginine methyl ester] | dose dependent increase; also recorded: increased activity | not modified; also recorded: no effect | – | – | – | – | – | – | – | – | increase in brain HO activity ([1]; 5 mM L-NAME, vs control without compound): 80%
N=C(N)NCCC[C@H](N)C(=O)O [L-arginine] | dose dependent decrease; also recorded: decreased heme-oxygenase activity | not modified; also recorded: no effect | – | – | – | – | – | – | – | – | decrease in brain HO activity ([1]; 10 mM, vs control without compound, 30 min): 75%
C=CC1=C(C)C2=Cc3c(C=C)c(C)c4[n]3[Sn]([Cl])([Cl])[n]3c(c(C)c(CCC(=O)O)c3=CC3=NC(=C4)C(C)=C3CCC(=O)O)=CC1=N2 [SnPP, Tin protoporphyrin dichloride] | – | – | 1.59 ± 0.12 mL | 67 ± 6 10^6 | not significantly modified | 1.80 ± 0.21 mL | 58 ± 6 10^6 | Neither SnPP or FePP treatments had an effect | dose dependant increase in inflammatory exudate | reduction of HO activity | effect on inflammation (exudate volumes and cell numbers) at 6 hours ([3]; listed as tin Protoporphyrin-IX): no significant effect; increase of exudate volume (cell exudate) compared to vehicle control ([3]; 24 hours, P<0.001): 128%; increase of exudate volume (cell exudate) compared to vehicle control ([3]; 24 hours, P<0.001, listed as tin Protoporphyrin-IX): 135%; increase of exudate volume compared to vehicle control ([4]; 24 hours, 3 μmoles/kg SnPP, 2 doses s.c.): 70%; effect on exudate volume at highest dose ([4]; 24 hours, SnPP 30 μmoles/kg): increased exudate volume further; effect on inflammatory cell number at highest dose ([4]; 24 hours, SnPP 30 μmoles/kg, likely a toxic effect): decrease in inflammatory cell number
